From publication PMC10274775 (bioRxiv, 2023)

Legend:
[1] = biological target: T1, uniporter with MICU1-MICU1 homodimer (MICU2-KO HEK cells) (Homo sapiens, UniProt Q8NE86+Q9BPX6); experiment: Fluo-4 extramitochondrial Ca2+ in digitonin-permeabilized MICU2-KO HEK cells; assay type: biochemical
T1 sequence (Q8NE86 51-351): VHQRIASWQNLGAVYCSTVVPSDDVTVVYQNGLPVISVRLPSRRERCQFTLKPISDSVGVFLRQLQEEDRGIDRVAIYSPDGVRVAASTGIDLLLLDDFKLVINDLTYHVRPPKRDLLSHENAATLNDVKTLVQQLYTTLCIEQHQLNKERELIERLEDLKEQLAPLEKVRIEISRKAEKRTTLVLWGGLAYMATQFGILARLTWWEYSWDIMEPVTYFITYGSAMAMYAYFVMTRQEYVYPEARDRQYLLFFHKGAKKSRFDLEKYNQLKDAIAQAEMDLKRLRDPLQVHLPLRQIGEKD
T1 sequence (Q9BPX6 34-476): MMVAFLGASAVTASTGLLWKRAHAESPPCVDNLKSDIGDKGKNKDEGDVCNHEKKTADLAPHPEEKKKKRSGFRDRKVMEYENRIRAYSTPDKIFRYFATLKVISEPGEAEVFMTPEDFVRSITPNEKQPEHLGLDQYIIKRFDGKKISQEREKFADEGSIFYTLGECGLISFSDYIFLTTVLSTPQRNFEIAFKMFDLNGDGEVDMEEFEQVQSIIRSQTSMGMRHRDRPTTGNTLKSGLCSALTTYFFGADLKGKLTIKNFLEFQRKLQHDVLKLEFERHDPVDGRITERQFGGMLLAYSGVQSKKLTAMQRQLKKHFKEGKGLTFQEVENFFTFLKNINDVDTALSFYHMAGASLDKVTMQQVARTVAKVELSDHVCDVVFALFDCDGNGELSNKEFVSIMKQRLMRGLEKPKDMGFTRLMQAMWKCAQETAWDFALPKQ
T1 sequence (Q9H4I9 53-107 partner): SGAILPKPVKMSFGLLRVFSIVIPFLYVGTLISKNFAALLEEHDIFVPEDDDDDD

[2] = biological target: T2, MCU-MICU1 complex (MICU1-1 dimer) (Homo sapiens, UniProt Q8NE86+Q9BPX6); experiment: co-immunoprecipitation from HEK lysate, western blot; assay type: biochemical; conditions: 1 mM spermine, 1 mM EGTA; disruption of the MCU-MICU1 interaction; pH 7.4, 4 mM DDM
T2 sequence (Q8NE86 51-351): T1 sequence (Q8NE86 51-351)
T2 sequence (Q9BPX6 34-476): T1 sequence (Q9BPX6 34-476)

EC50 [1]: 158 µM
Structure (SMILES): NCCCNCCCCNCCCN [spermine]
co-immunoprecipitation from HEK lysate, western blot [2]: spermine fully breaks complex formation between MCU and the MICU1-1 dimer
